Biological target: T1, rat B1R (bradykinin receptor 1) (Rattus norvegicus, UniProt P97583)
T1 construct: expressed in transfected cells; host or cells: CHO K1 cells
T1 sequence (P97583 1-337): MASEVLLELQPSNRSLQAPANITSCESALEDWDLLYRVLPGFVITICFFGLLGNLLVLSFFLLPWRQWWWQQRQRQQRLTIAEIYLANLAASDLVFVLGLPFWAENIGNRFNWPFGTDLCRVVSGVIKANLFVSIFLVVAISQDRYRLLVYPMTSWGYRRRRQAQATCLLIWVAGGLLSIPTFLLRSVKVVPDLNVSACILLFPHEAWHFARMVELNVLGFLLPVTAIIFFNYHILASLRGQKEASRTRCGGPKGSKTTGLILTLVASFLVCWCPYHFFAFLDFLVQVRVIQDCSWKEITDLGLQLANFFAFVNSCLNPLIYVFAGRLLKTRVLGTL
Test: FLIPR Ca2+ assay (Fluo-4) on CHO K1 cells stably transfected with the B1R gene of the rat (rB1R cells): % inhibition at 10 μM / IC50, agonist Des-Arg9-bradykinin
Type: cell-based
Details: CHO-K1, rat B1R
How it was run: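 Stable CHO K1 lines, Fluo-4 dye, probenecid-containing buffer. Cpd 10 μM or dose range, 10–20 min, then EC80 agonist (h: Lys-Des-Arg9-BK; r: Des-Arg9-BK). Readout peak FC; % inhibition vs max; IC50 from n=2–3, N≥2.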

| inhibition at 10 µM [%] | SMILES |
| --- | --- |
| 102 | O=C(NC1CCc2ccc(C(=O)N3CCC4(CCN(Cc5ccc(F)cc5F)CC4)CC3)cc21)c1ccccc1Cl (centres unmarked) [IND_CC-516, 2-Chloro-N-[6-[9-[(2,4-difluoro-phenyl)-methyl]-3,9-diazaspiro[5.5]undecane-3-carbonyl]-2,3-dihydro-1H-inden-1-yl]-benzamide] |
| 90 | COc1cccc(F)c1CN1CCC2(CC1)CCN(C(=O)c1ccc3c(c1)C(NC(=O)c1ccccc1Cl)CC3)CC2 (centres unmarked) [IND_CC-517, 2-Chloro-N-[6-[9-[(2-fluoro-6-methoxy-phenyl)-methyl]-3,9-diazaspiro[5.5]undecane-3-carbonyl]-2,3-dihydro-1H-inden-1-yl]-benzamide] |
| 86 | O=C(c1ccc2c(c1)C(N(C(=O)c1ccccc1Cl)C1CC1)CC2)N1CCC2(CCN(Cc3cccnc3)CC2)C1 (centres unmarked) [IND_CC-518, 2-Chloro-N-cyclopropyl-N-[6-[8-(pyridin-3-yl-methyl)-2,8-diazaspiro[4.5]decane-2-carbonyl]-2,3-dihydro-1H-inden-1-yl]-benzamide] |
| 53 | Cn1cccc1CN1CCC2(CC1)CCN(C(=O)c1ccc3c(c1)C(N(C(=O)c1ccccc1Cl)C1CC1)CC3)C2 (centres unmarked) [IND_CC-519, 2-Chloro-N-cyclopropyl-N-[6-[8-[(1-methyl-1H-pyrrol-2-yl)-methyl]-2,8-diazaspiro[4.5]decane-2-carbonyl]-2,3-dihydro-1H-inden-1-yl]-benzamide] |
| 72 | O=C(c1ccc2c(c1)C(N(C(=O)c1ccccc1Cl)C1CC1)CC2)N1CCC2(CCN(Cc3c(F)cccc3F)CC2)C1 (centres unmarked) [IND_CC-520, 2-Chloro-N-cyclopropyl-N-[6-[8-[(2,6-difluoro-phenyl)-methyl]-2,8-diazaspiro[4.5]decane-2-carbonyl]-2,3-dihydro-1H-inden-1-yl]-benzamide] |
| 66 | O=C(c1ccc2c(c1)C(N(C(=O)c1ccccc1Cl)C1CC1)CC2)N1CCC2(CCN(Cc3ccc(F)c(F)c3)CC2)C1 (centres unmarked) [IND_CC-521, 2-Chloro-N-cyclopropyl-N-[6-[8-[(3,4-difluoro-phenyl)-methyl]-2,8-diazaspiro[4.5]decane-2-carbonyl]-2,3-dihydro-1H-inden-1-yl]-benzamide] |
| 55 | O=C(c1ccc2c(c1)C(N(C(=O)c1ccccc1Cl)C1CC1)CC2)N1CCC2(CCN(Cc3cc(F)ccc3F)CC2)C1 (centres unmarked) [IND_CC-522, 2-Chloro-N-cyclopropyl-N-[6-[8-[(2,5-difluoro-phenyl)-methyl]-2,8-diazaspiro[4.5]decane-2-carbonyl]-2,3-dihydro-1H-inden-1-yl]-benzamide] |
| 68 | O=C(c1ccc2c(c1)C(N(C(=O)c1ccccc1Cl)C1CC1)CC2)N1CCC2(CCN(Cc3ccc(F)cc3F)CC2)C1 (centres unmarked) [IND_CC-523, 2-Chloro-N-cyclopropyl-N-[6-[8-[(2,4-difluoro-phenyl)-methyl]-2,8-diazaspiro[4.5]decane-2-carbonyl]-2,3-dihydro-1H-inden-1-yl]-benzamide] |
| 62 | COc1ccc(CN2CCC3(CC2)CCN(C(=O)c2ccc4c(c2)C(N(C(=O)c2ccccc2Cl)C2CC2)CC4)C3)cc1F (centres unmarked) [IND_CC-524, 2-Chloro-N-cyclopropyl-N-[6-[8-[(3-fluoro-4-methoxy-phenyl)-methyl]-2,8-diazaspiro[4.5]decane-2-carbonyl]-2,3-dihydro-1H-inden-1-yl]-benzamide] |
| 62 | COc1cccc(F)c1CN1CCC2(CC1)CCN(C(=O)c1ccc3c(c1)C(N(C(=O)c1ccccc1Cl)C1CC1)CC3)C2 (centres unmarked) [IND_CC-525, 2-Chloro-N-cyclopropyl-N-[6-[8-[(2-fluoro-6-methoxy-phenyl)-methyl]-2,8-diazaspiro[4.5]decane-2-carbonyl]-2,3-dihydro-1H-inden-1-yl]-benzamide] |
| 98 | Cc1nc[nH]c1CN1CCC2(CC1)CCN(C(=O)c1ccc3c(c1)C(NC(=O)c1ccccc1Cl)CC3)CC2 (centres unmarked) [IND_CC-527, 2-Chloro-N-[6-[9-[(5-methyl-3H-imidazol-4-yl)-methyl]-3,9-diazaspiro[5.5]undecane-3-carbonyl]-2,3-dihydro-1H-inden-1-yl]-benzamide] |
| 104 | O=C(NC1CCc2ccc(C(=O)N3CCC4(CCN(Cc5ccc(F)cc5Cl)CC4)CC3)cc21)c1ccccc1Cl (centres unmarked) [IND_CC-529, 2-Chloro-N-[6-[9-[(2-chloro-4-fluoro-phenyl)-methyl]-3,9-diazaspiro[5.5]undecane-3-carbonyl]-2,3-dihydro-1H-inden-1-yl]-benzamide] |
| 96 | O=C(NC1CCc2ccc(C(=O)N3CCC4(CCN(Cc5c(F)cccc5Cl)CC4)CC3)cc21)c1ccccc1Cl (centres unmarked) [IND_CC-530, 2-Chloro-N-[6-[9-[(2-chloro-6-fluoro-phenyl)-methyl]-3,9-diazaspiro[5.5]undecane-3-carbonyl]-2,3-dihydro-1H-inden-1-yl]-benzamide] |
| 81 | Cc1c(CN2CCC3(CC2)CCN(C(=O)c2ccc4c(c2)C(NC(=O)c2ccccc2Cl)CC4)CC3)cnn1C (centres unmarked) [IND_CC-531, 2-Chloro-N-[6-[9-[(1,5-dimethyl-1H-pyrazol-4-yl)-methyl]-3,9-diazaspiro[5.5]undecane-3-carbonyl]-2,3-dihydro-1H-inden-1-yl]-benzamide] |
| 62 | Cc1noc(C)c1CN1CCC2(CC1)CCN(C(=O)c1ccc3c(c1)C(NC(=O)c1ccccc1Cl)CC3)CC2 (centres unmarked) [IND_CC-532, 2-Chloro-N-[6-[9-[(3,5-dimethyl-isoxazol-4-yl)-methyl]-3,9-diazaspiro[5.5]undecane-3-carbonyl]-2,3-dihydro-1H-inden-1-yl]-benzamide] |
| 74 | N#Cc1ccc(CN2CCC3(CC2)CCN(C(=O)c2ccc4c(c2)C(NC(=O)c2ccccc2Cl)CC4)CC3)cc1 (centres unmarked) [IND_CC-533, 2-Chloro-N-[6-[9-[(4-cyano-phenyl)-methyl]-3,9-diazaspiro[5.5]undecane-3-carbonyl]-2,3-dihydro-1H-inden-1-yl]-benzamide] |
| 102 | N#Cc1cccc(CN2CCC3(CC2)CCN(C(=O)c2ccc4c(c2)C(NC(=O)c2ccccc2Cl)CC4)CC3)c1 (centres unmarked) [IND_CC-534, 2-Chloro-N-[6-[9-[(3-cyano-phenyl)-methyl]-3,9-diazaspiro[5.5]undecane-3-carbonyl]-2,3-dihydro-1H-inden-1-yl]-benzamide] |
| 54 | Cn1cncc1CN1CCC2(CC1)CCN(C(=O)c1ccc3c(c1)C(N(C(=O)c1ccccc1Cl)C1CC1)CC3)C2 (centres unmarked) [IND_CC-536, 2-Chloro-N-cyclopropyl-N-[6-[8-[(3-methyl-3H-imidazol-4-yl)-methyl]-2,8-diazaspiro[4.5]decane-2-carbonyl]-2,3-dihydro-1H-inden-1-yl]-benzamide] |
| 62 | O=C(c1ccc2c(c1)C(N(C(=O)c1ccccc1Cl)C1CC1)CC2)N1CCC2(CCN(Cc3ccc(F)cc3Cl)CC2)C1 (centres unmarked) [IND_CC-537, 2-Chloro-N-[6-[8-[(2-chloro-4-fluoro-phenyl)-methyl]-2,8-diazaspiro[4.5]-decane-2-carbonyl]-2,3-dihydro-1H-inden-1-yl]-N-cyclopropyl-benzamide] |
| 72 | O=C(c1ccc2c(c1)C(N(C(=O)c1ccccc1Cl)C1CC1)CC2)N1CCC2(CCN(Cc3c(F)cccc3Cl)CC2)C1 (centres unmarked) [IND_CC-538, 2-Chloro-N-[6-[8-[(2-chloro-6-fluoro-phenyl)-methyl]-2,8-diazaspiro[4.5]-decane-2-carbonyl]-2,3-dihydro-1H-inden-1-yl]-N-cyclopropyl-benzamide] |

From patent US8455475B2 (Gruenenthal GmbH, priority 2009, dated 2013)
